The results in this text go back to PubChem BioAssay (NCI).

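Method: 48-hour compound exposure of cells in 96-well plates, five concentrations, linear interpolation of endpoints. TGI denotes the concentration required for complete inhibition of growth.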 Where only a bound is given, the exact number is not on record here.

Among the test systems are CCRF-CEM leukemia; IGROV1 ovarian; MALME-3M melanoma; NCI-H23 lung; NCI-H522 lung; OVCAR-3 ovarian; OVCAR-4 ovarian; SF-539 CNS; SN12C renal; T-47D breast.
Common to all, as to assay: growth of human tumour cells (NCI), 48 h

Take `Cn1nc2c(c1N)Cc1c(nn(C)c1N)-c1ccccc1-2`: the TGI with CCRF-CEM leukemia, with IGROV1 ovarian, in the assay on MALME-3M melanoma, with NCI-H23 lung, in the assay on NCI-H522 lung and in the assay with OVCAR-3 ovarian was greater than 100 µM throughout. Further, the TGI in the assay on OVCAR-4 ovarian, in the assay with SF-539 CNS, with SN12C renal and with T-47D breast was greater than 100 µM each time.

Consider `S=c1[nH]nc(Cn2c3ccc(Br)cc3c3nc4ccccc4nc32)n1C1CCCCC1`, for which the TGI in the assay with CCRF-CEM leukemia was 84.1 µM; with IGROV1 ovarian, greater than 100 µM; in the assay on MALME-3M melanoma it was 72.7 µM; with NCI-H23 lung it was 42.1 µM; in the assay on NCI-H522 lung, 67.4 µM; in the assay on OVCAR-3 ovarian, greater than 59.7 µM. Also, the TGI in the assay with OVCAR-4 ovarian is greater than 100 µM; in the assay with SF-539 CNS it was 42.1 µM; in the assay on SN12C renal it was greater than 56.6 µM; with T-47D breast it was greater than 100 µM.

Take `COc1cc(OC)cc(Oc2nc3cc(F)c(F)cc3nc2-c2ccccc2)c1`: the TGI in the assay on CCRF-CEM leukemia, in the assay with IGROV1 ovarian, in the assay with MALME-3M melanoma, in the assay with NCI-H23 lung, in the assay on NCI-H522 lung and in the assay on OVCAR-3 ovarian was greater than 100 µM throughout. In addition, the TGI in the assay on OVCAR-4 ovarian, with SF-539 CNS, with SN12C renal and with T-47D breast was greater than 100 µM throughout.

For the compound `CN(C)CCNc1c([N+](=O)[O-])sc2ccc(Cl)cc12`, the TGI is greater than 100 µM in the assay on CCRF-CEM leukemia; greater than 100 µM in the assay on IGROV1 ovarian; greater than 100 µM in the assay with MALME-3M melanoma; greater than 100 µM in the assay with NCI-H23 lung; 87.4 µM with NCI-H522 lung; greater than 100 µM with OVCAR-3 ovarian. Besides, the TGI in the assay with OVCAR-4 ovarian is greater than 100 µM; in the assay on SF-539 CNS, 46.9 µM; in the assay on SN12C renal, greater than 100 µM; with T-47D breast, greater than 100 µM.

Consider `C[N+]1(CCN=C=NC2CCCCC2)CCOCC1`, for which the TGI in the assay on CCRF-CEM leukemia, in the assay with IGROV1 ovarian, with MALME-3M melanoma, with NCI-H23 lung, in the assay on NCI-H522 lung and in the assay on OVCAR-3 ovarian was greater than 100 µM throughout. Further, the TGI with OVCAR-4 ovarian, in the assay on SF-539 CNS, in the assay on SN12C renal and in the assay with T-47D breast was greater than 100 µM each time.

Turning to `CC1(C)N=C(N)N=C(N)N1c1cccc(OCc2cccc(N)c2)c1`, the TGI in the assay on CCRF-CEM leukemia, with IGROV1 ovarian, with MALME-3M melanoma, with NCI-H23 lung, in the assay on NCI-H522 lung and in the assay on OVCAR-3 ovarian was greater than 100 µM in each case. The TGI is greater than 100 µM in the assay with OVCAR-4 ovarian, greater than 80.4 µM in the assay on SF-539 CNS, greater than 100 µM in the assay on SN12C renal and greater than 100 µM in the assay on T-47D breast.

For the compound `CC(O)CNC1=CC(=O)C(=O)c2ccccc21` (stereo not given), the TGI with CCRF-CEM leukemia is greater than 100 µM; in the assay with IGROV1 ovarian it was 33.8 µM; with MALME-3M melanoma, 17.7 µM; with NCI-H23 lung, 39.1 µM; with NCI-H522 lung it was 41.8 µM; in the assay with OVCAR-3 ovarian, 13.4 µM. The TGI in the assay on OVCAR-4 ovarian worked out at 26 µM; in the assay with SF-539 CNS, 38.5 µM; with SN12C renal it was 34.9 µM; in the assay on T-47D breast, 45.2 µM.

Turning to `COC(=O)C1=C(C)NC(C)=C(C(=O)OC)C1c1cccc(N=O)c1`, the TGI in the assay on CCRF-CEM leukemia was greater than 100 µM; in the assay on IGROV1 ovarian, 30.6 µM; with MALME-3M melanoma, 28.8 µM; with NCI-H23 lung, 36.2 µM; with NCI-H522 lung, 11.8 µM; with OVCAR-3 ovarian, 29 µM. The TGI turned out to be 26.2 µM with OVCAR-4 ovarian, 33.5 µM with SF-539 CNS, 33.3 µM in the assay on SN12C renal and 40.4 µM in the assay on T-47D breast.

For the compound `Cc1ccc(C(=O)Cc2nc3c([nH]c2=O)c(C)nn3-c2ccccc2)c(C)c1`, the TGI in the assay on CCRF-CEM leukemia is greater than 10 µM; with IGROV1 ovarian, greater than 10 µM; in the assay on MALME-3M melanoma, greater than 10 µM; with NCI-H23 lung, greater than 10 µM; with NCI-H522 lung it was greater than 10 µM; with OVCAR-3 ovarian, 8.94 µM. Moreover, the TGI with OVCAR-4 ovarian was 5.19 µM; in the assay with SF-539 CNS it was greater than 10 µM; in the assay on SN12C renal it was greater than 10 µM; with T-47D breast it was greater than 10 µM.

On to `O=C(OC12CC3CC(CC(C3)C1)C2)c1ccc(NCc2cc(O)ccc2O)cc1`, for which the TGI was 0.723 µM in the assay with CCRF-CEM leukemia; 0.816 µM in the assay on IGROV1 ovarian; 1.67 µM in the assay on MALME-3M melanoma; 3.8 µM in the assay on NCI-H23 lung; 0.237 µM with NCI-H522 lung; 2.3 µM in the assay with OVCAR-3 ovarian. The TGI worked out at 1.97 µM with OVCAR-4 ovarian, 1.31 µM with SF-539 CNS, 9.22 µM in the assay with SN12C renal and 1.04 µM in the assay with T-47D breast.

Consider `CCC(=O)Nc1ccc(NS(=O)(=O)c2ccc(Cl)cc2)cc1`, for which the TGI in the assay with CCRF-CEM leukemia, in the assay with IGROV1 ovarian, in the assay with MALME-3M melanoma, with NCI-H23 lung, in the assay on NCI-H522 lung and in the assay on OVCAR-3 ovarian was greater than 100 µM in each case. Also, the TGI in the assay on OVCAR-4 ovarian, in the assay with SF-539 CNS, in the assay on SN12C renal and in the assay on T-47D breast was greater than 100 µM each time.

Take `CCN(CC)c1ccc(NC(=S)NN(C)C)cc1`: the TGI in the assay with CCRF-CEM leukemia, in the assay with IGROV1 ovarian, with MALME-3M melanoma, in the assay with NCI-H23 lung, with NCI-H522 lung and in the assay on OVCAR-3 ovarian was greater than 10 µM each time. Moreover, the TGI in the assay on OVCAR-4 ovarian, with SF-539 CNS, in the assay on SN12C renal and in the assay on T-47D breast was greater than 10 µM throughout.

Consider `O=C1c2cccnc2S(=O)(=O)N1c1ccc([N+](=O)[O-])cc1`, for which the TGI in the assay on CCRF-CEM leukemia, in the assay on IGROV1 ovarian, with MALME-3M melanoma, with NCI-H23 lung, in the assay with NCI-H522 lung and in the assay on OVCAR-3 ovarian was greater than 100 µM throughout. Besides, the TGI in the assay on OVCAR-4 ovarian, in the assay on SF-539 CNS, in the assay on SN12C renal and with T-47D breast was greater than 100 µM throughout.

`CC1(C)OC[C@@H](C[C@H](O)COCc2ccccc2)O1`: the TGI in the assay with CCRF-CEM leukemia, in the assay with IGROV1 ovarian, in the assay on MALME-3M melanoma, in the assay with NCI-H23 lung, with NCI-H522 lung and with OVCAR-3 ovarian was greater than 100 µM in each case. Further, the TGI with OVCAR-4 ovarian, with SF-539 CNS, in the assay on SN12C renal and in the assay on T-47D breast was greater than 100 µM each time.
